In article PMC7316778 (Nature Communications, 2020):

Key:
Design in all cases: human FES cDNA encoding residues 448–822 or human FER cDNA encoding residues 448–820 was amplified by PCR; made in house; host or cells: E. coli BL21(DE3), co-expressing YopH phosphatase
FES^S700C [1] = molecular target: T1, FES^S700C (Homo sapiens, UniProt P07332, S700C); assay: MS identification of covalent inhibitor-peptide adduct; conditions: 1 μM, 30 min, rt
Experimental: Purified FES^S700C (1.2 μg in 38 μL) was treated with WEL028 (2 μL of 20× concentrated stock in DMSO, 1 μM final concentration) or vehicle (as negative control) for 30 min at rt. […] Gel was stained using Coomassie Brilliant Blue R-250, bands were cut out of gel into small blocks and then destained in 500 μL of 50% MeOH in 100 mM NH4HCO3 pH 8.0 for 10 min at rt. Acetonitrile (500 μL) was added for gel blocks dehydration, after which gel blocks were digested with sequencing-grade trypsin (Promega) in 250 μL trypsin buffer (100 mM Tris pH 7.5, 100 mM NaCl, 1 mM CaCl2, 10% acetonitrile) overnight at 37 °C with vigorous shaking. […] Samples were subsequently desalted using StageTips with C18 material. […]
Tryptic peptides were analyzed on a Surveyor nano-LC system (Thermo) hyphenated to a LTQ-Orbitrap mass spectrometer (Thermo) (n = 1)[69]. […] Samples of 10 µl were separated via a trap-elute setup at 250 nL/min flow and analyzed by data-dependent acquisition of one full scan/ top 3 method. For shotgun proteomics, fragmented precursor ions measured twice within 10 s were dynamically excluded for 60 s and ions with z < 2 or unassigned charges were not analyzed. Peptide ID was determined with the Mascot search engine. […]

FES^S700C [2] = molecular target: T1, FES^S700C; assay: PamChip microarray peptide phosphorylation; assay type: biochemical; conditions: for Mean signal, time course: Figure 7f, S700C + WEL028, n 3
FES^S700C [3] = molecular target: T1, FES^S700C; assay: In vitro TR-FRET kinase assay; assay type: biochemical; conditions: TR-FRET assay, 5 µM ATP; n = 3; read-out: pIC50 FES^S700C (converted)

T1 sequence (P07332 448-822 S700C): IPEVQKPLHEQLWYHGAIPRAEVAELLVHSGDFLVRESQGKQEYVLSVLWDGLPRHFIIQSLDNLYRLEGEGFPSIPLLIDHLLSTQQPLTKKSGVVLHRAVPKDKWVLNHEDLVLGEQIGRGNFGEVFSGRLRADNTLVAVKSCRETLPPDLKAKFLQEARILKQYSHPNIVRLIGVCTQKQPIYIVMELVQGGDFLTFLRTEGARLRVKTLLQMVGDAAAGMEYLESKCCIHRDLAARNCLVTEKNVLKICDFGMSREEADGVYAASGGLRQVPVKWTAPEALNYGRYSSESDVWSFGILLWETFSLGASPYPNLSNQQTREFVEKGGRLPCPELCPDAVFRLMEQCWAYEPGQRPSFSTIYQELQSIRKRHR

## C#CCOc1ccc(Nc2ncc(Cl)c(Nc3ccccc3NC(=O)C=C)n2)c(OC)c1 [Compound 6]
FES^S700C [1]
  Covalent adduct by LC-MS/MS: covalent addition of WEL028 to Cys700
FES^S700C [2]; time 0 min
  Mean signal, time course: -48.0
FES^S700C [2]; time 5 min
  Mean signal, time course: -46.0
FES^S700C [2]; time 10 min
  Mean signal, time course: -41.0
FES^S700C [2]; time 15 min
  Mean signal, time course: -40.0
FES^S700C [2]; time 20 min
  Mean signal, time course: -38.0
FES^S700C [2]; time 25 min
  Mean signal, time course: -35.0
FES^S700C [2]; time 30 min
  Mean signal, time course: -33.0
FES^S700C [2]; time 35 min
  Mean signal, time course: -32.0
FES^S700C [2]; time 40 min
  Mean signal, time course: -32.0
FES^S700C [2]; time 45 min
  Mean signal, time course: -30.0
FES^S700C [2]; time 50 min
  Mean signal, time course: -26.0
FES^S700C [2]; time 55 min
  Mean signal, time course: -29.0
FES^S700C [2]; time 60 min
  Mean signal, time course: -29.0
FES^S700C [2]; WEL028 100 nM
  ZAP70 peptide phosphorylation: abolished peptide phosphorylation
FES^S700C [3]
  IC50: 3.98 nM
